From patent US12344597B2, “Alkoxy-substituted pyridinyl derivatives as LPA1 receptor antagonists and their use in the treatment of fibrosis” (IDORSIA PHARMACEUTICALS LTD, priority 2018, dated 2025)
pIC50: −log10 of the molar value.

Biological target: human LPA1 receptor (Homo sapiens (Human), UniProt Q92633)
Experiment: Beta-arrestin recruitment assay to determine IC50 values for human LPAR1
Format: cell-based
Settings: antagonist mode, Tango EDG2-bla U2OS cells, LPA 18:1 500 nM final
Summary of the method: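 Tango EDG2-bla U2OS cells: LPA-driven beta-arrestin/TEV protease recruitment releases Gal4-VP16, inducing beta-lactamase reporter read with live-cell substrate. Cells seeded 20 h at 37 °C beforehand. IC50 is antagonist concentration inhibiting 50% of maximal response.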

Sequence of human LPA1 receptor (Q92633 whole entry): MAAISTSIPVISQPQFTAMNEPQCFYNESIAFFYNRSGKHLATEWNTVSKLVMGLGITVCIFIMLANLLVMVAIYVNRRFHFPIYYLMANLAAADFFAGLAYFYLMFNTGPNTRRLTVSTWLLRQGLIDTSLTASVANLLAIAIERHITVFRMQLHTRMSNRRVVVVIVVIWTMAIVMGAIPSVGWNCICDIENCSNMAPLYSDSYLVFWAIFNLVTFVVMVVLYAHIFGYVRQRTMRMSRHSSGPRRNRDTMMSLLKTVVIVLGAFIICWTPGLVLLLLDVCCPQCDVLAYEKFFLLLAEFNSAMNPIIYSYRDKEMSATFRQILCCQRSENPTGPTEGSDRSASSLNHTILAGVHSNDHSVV

Row | pIC50 | Compound
1 | 6.99 | Cc1ccc(NC(=O)C2(c3ccccc3C(C)C)CN(C(=O)CN3CCC(C(=O)O)CC3)C2)c(OC(F)F)n1 [Ex 48, 1-(2-(3-((2-(difluoromethoxy)-6-methylpyridin-3-yl)carbamoyl)-3-(2-isopropylphenyl)azetidin-1-yl)-2-oxoethyl)piperidine-4-carboxylic acid]
2 | 5.77 | Cc1ccc(NC(=O)C2(c3ccccc3C(C)C)CN(C(=O)[C@H](C)NC(=O)OC(C)(C)C)C2)c(OC(F)F)n1 [Ex 12-32, tert-butyl (S)-(1-(3-((2-(difluoromethoxy)-6-methylpyridin-3-yl)carbamoyl)-3-(2-isopropylphenyl)azetidin-1-yl)-1-oxopropan-2-yl)carbamate]
3 | 8.05 | Cc1ccc(NC(=O)C2(c3ccccc3C(C)C)CN(Cc3ccno3)C2)c(OC(F)F)n1 [Ex 11-36, N-(2-(difluoromethoxy)-6-methylpyridin-3-yl)-3-(2-isopropylphenyl)-1-(isoxazol-5-ylmethyl)azetidine-3-carboxamide]
4 | 8.00 | CC(C)c1ccccc1C1(C(=O)Nc2cc(F)cnc2OC(F)F)CN(S(N)(=O)=O)C1 [Ex 15-15, N-(2-(difluoromethoxy)-5-fluoropyridin-3-yl)-3-(2-isopropylphenyl)-1-sulfamoylazetidine-3-carboxamide]
5 | 7.29 | COC(=O)[C@H]1C[C@H]1C(=O)N1CC(C(=O)Nc2ccc(C)nc2OC(F)F)(c2ccccc2C(C)C)C1 [Ex 12-94, methyl (1S,2R)-2-(3-((2-(difluoromethoxy)-6-methylpyridin-3-yl)carbamoyl)-3-(2-isopropylphenyl)azetidine-1-carbonyl)cyclopropane-1-carboxylate]
6 | 8.40 | CCOc1ccc(NC(=O)C2(c3ccccc3C(C)C)CN(S(N)(=O)=O)C2)c(OC)n1 [Ex 15-8, N-(6-ethoxy-2-methoxypyridin-3-yl)-3-(2-isopropylphenyl)-1-sulfamoylazetidine-3-carboxamide]
7 | 6.72 | Cc1ccc(NC(=O)C2(c3ccccc3C(C)C)CN(C[C@@H](O)CN(C)C)C2)c(OC(F)F)n1 [Ex 11-85, (S)-N-(2-(difluoromethoxy)-6-methylpyridin-3-yl)-1-(3-(dimethylamino)-2-hydroxypropyl)-3-(2-isopropylphenyl)azetidine-3-carboxamide]
8 | 7.10 | Cc1ccc(NC(=O)C2(c3ccccc3C(C)C)CN(C(=O)[C@@H]3CCC[C@H](C(=O)O)C3)C2)c(OC(F)F)n1 [Ex 51, (1S,3R)-3-(3-((2-(difluoromethoxy)-6-methylpyridin-3-yl)carbamoyl)-3-(2-isopropylphenyl)azetidine-1-carbonyl)cyclohexane-1-carboxylic acid]
9 | 6.85 | Cc1ccc(C(C)C)c(C2(C(=O)Nc3ccc(C)nc3OC(F)F)CNC2)c1 [Ex 34, N-(2-(difluoromethoxy)-6-methylpyridin-3-yl)-3-(2-isopropyl-5-methylphenyl)azetidine-3-carboxamide]
10 | 6.80 | CC(=O)NS(=O)(=O)N1CC(C(=O)Nc2cccnc2OC(F)F)(c2ccccc2C(C)C)C1 [Ex 16-2, 1-(N-acetylsulfamoyl)-N-(2-(difluoromethoxy)pyridin-3-yl)-3-(2-isopropylphenyl)azetidine-3-carboxamide]
11 | 7.47 | Cc1ccc(NC(=O)C2(c3ccccc3C(C)C)CN(C(=O)NCC(=O)O)C2)c(OC(F)F)n1 [Ex 17-4, (3-((2-(difluoromethoxy)-6-methylpyridin-3-yl)carbamoyl)-3-(2-isopropylphenyl)azetidine-1-carbonyl)glycine]
12 | 8.00 | CC(C)c1ccccc1C1(C(=O)Nc2ncc(Br)cc2OC(F)F)CNC1 [Ex 73, N-(5-bromo-3-(difluoromethoxy)pyridin-2-yl)-3-(2-isopropylphenyl)azetidine-3-carboxamide]
13 | 8.15 | Cc1ccc(NC(=O)C2(c3ccccc3C(C)C)CN(S(=O)(=O)CC(=O)O)C2)c(OC(F)F)n1 [Ex 13-1, 2-((3-((2-(difluoromethoxy)-6-methylpyridin-3-yl)carbamoyl)-3-(2-isopropylphenyl)azetidin-1-yl)sulfonyl)acetic acid]
